Test results reported in the supplement of paper PMC11061612.

What was measured:
Test in all cases: combination Emax (second highest fraction inhibited in the dose matrix, 72 h); higher = more inhibition; extreme values may be limits of the assay
[1] = test system: PANC-08-13 (Pancreatic Carcinoma)
Procedure, shortened: (§1)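 After 24 hours at 37°C and 5% CO2 in 1536-well plates, cells in DMEM/F12 or RPMI plus 10% FBS received two-drug dose matrices for 72 hours. Viability came from CellTiter-Glo 2.0 luminescence and was scaled as inhibition, anchored at 0 by vehicle wells and at 1 by blank wells. Combination Emax is taken as the second-highest inhibition in the matrix, and Bliss excess as the observed combination effect less EA + EB − EA·EB, with EA and EB the single-agent effects.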

[2] = test system: KCL-22 (Chronic Myelogenous Leukemia)
Procedure, shortened: as §1

[3] = test system: CHP-212 (Neuroblastoma)
Procedure, shortened: as §1

[4] = test system: K-562 (Chronic Myelogenous Leukemia)
Procedure, shortened: as §1

[5] = test system: NCI-H1792 (Lung Adenocarcinoma)
Procedure, shortened: as §1

[6] = test system: KARPAS-45 (T-Lymphoblastic Leukemia)
Procedure, shortened: as §1

[7] = test system: MEL-JUSO (Melanoma)
Procedure, shortened: as §1

[8] = test system: P12-ICHIKAWA (T-Lymphoblastic Leukemia)
Procedure, shortened: as §1

[9] = test system: GR-ST (B-Lymphoblastic Leukemia)
Procedure, shortened: as §1

[10] = test system: ES8 (Ewing's Sarcoma)
Procedure, shortened: as §1

[11] = test system: COLO-678 (Colorectal Carcinoma)
Procedure, shortened: as §1

[12] = test system: KM12 (Colorectal Carcinoma)
Procedure, shortened: as §1

[13] = test system: SR (Other Blood Carcinomas)
Procedure, shortened: as §1

[14] = test system: HDQ-P1 (Breast Carcinoma)
Procedure, shortened: as §1

[15] = test system: SW1417 (Colorectal Carcinoma)
Procedure, shortened: as §1

[16] = test system: BL-41 (Burkitt's Lymphoma)
Procedure, shortened: as §1

[17] = test system: U251 (Low Grade Glioma)
Procedure, shortened: as §1

[18] = test system: ES1 (Ewing's Sarcoma)
Procedure, shortened: as §1

[19] = test system: LN-18 (Glioblastoma)
Procedure, shortened: as §1

Row | SMILES | combination Emax [1] | combination Emax [2] | combination Emax [3] | combination Emax [4] | combination Emax [5] | combination Emax [6] | combination Emax [7] | combination Emax [8] | combination Emax [9] | combination Emax [10] | combination Emax [11] | combination Emax [12] | combination Emax [13] | combination Emax [14] | combination Emax [15] | combination Emax [16] | combination Emax [17] | combination Emax [18] | combination Emax [19]
1 | NC1(C(=O)N[C@@H](CCO)c2ccc(Cl)cc2)CCN(c2ncnc3[nH]ccc23)CC1 [Capivasertib] + C[C@@H]1COCCN1C2=NC(=NC(=C2)C3(CC3)[S@](=N)(=O)C)C4=C5C=CNC5=NC=C4 [AZD6738] (first compound max 10 µM, 7x7, partner max 10 µM) | 0.478 | 0.979 | 0.829 | 0.866 | 0.767 | 0.854 | 0.524 | 1 | 0.809 | 0.961 | 0.237 | 0.91 | 0.954 | 0.422 | 0.497 | 0.981 | 0.444 | 0.972 | 0.846
2 | NC1(C(=O)N[C@@H](CCO)c2ccc(Cl)cc2)CCN(c2ncnc3[nH]ccc23)CC1 [Capivasertib] + Cn1cnc2c(F)c(Nc3ccc(Br)cc3Cl)c(C(=O)NOCCO)cc21 [Selumetinib] (first compound max 10 µM, 7x7, partner max 10 µM) | 0.405 | 0.604 | 0.946 | 0.425 | 0.504 | 0.627 | 0.545 | 0.748 | 0.678 | 0.533 | 0.544 | 0.868 | 0.582 | 0.596 | 0.586 | 0.287 | 0.494 | 0.52 | 0.603
3 | Cc1nc(Nc2ncc(C(=O)Nc3c(C)cccc3Cl)s2)cc(N2CCN(CCO)CC2)n1 [Dasatinib] + CC(=O)Nc1cccc(-n2c(=O)n(C3CC3)c(=O)c3c(Nc4ccc(I)cc4F)n(C)c(=O)c(C)c32)c1 [Trametinib] (first compound max 2 µM, 7x7, partner max 1 µM) | 0.738 | 0.93 | 1 | 0.747 | 1 | 0.592 | 0.497 | 0.517 | 0.361 | 0.223 | 0.559 | 0.714 | 0.245 | 0.958 | 0.834 | 0.144 | 0.781 | 0.0713 | 0.353
4 | COc1cc2ncnc(Nc3ccc(F)c(Cl)c3)c2cc1OCCCN1CCOCC1 [Gefitinib] + CC(C)n1c(=O)n(C)c2cnc3cc(F)c(-c4ccc(OCCCN5CCCCC5)nc4)cc3c21 [AZD1390] (first compound max 10 µM, 7x7, partner max 0.3 µM) | 0.143 | 0.155 | 0.157 | 0.13 | 0.231 | 0.644 | 0.114 | 0.144 | 0.39 | 0.178 | 0.306 | 0.044 | 0.2 | 0.383 | 0.164 | 0.279 | 0.0432 | 0.353 | 0.146
5 | CS(=O)(=O)CCNCc1ccc(-c2ccc3ncnc(Nc4ccc(OCc5cccc(F)c5)c(Cl)c4)c3c2)o1 [Lapatinib] + C[C@@H](Oc1cc(-c2cnn(C3CCNCC3)c2)cnc1N)c1c(Cl)ccc(F)c1Cl [Crizotinib] (first compound max 10 µM, 7x7, partner max 10 µM) | 0.802 | 0.979 | 0.988 | 0.962 | 0.924 | 1 | 0.912 | 0.975 | 0.988 | 1 | 0.62 | 0.93 | 1 | 0.936 | 0.669 | 0.96 | 0.785 | 0.965 | 0.965
6 | CC(=O)c1c(C)c2cnc(Nc3ccc(N4CCNCC4)cn3)nc2n(C2CCCC2)c1=O [Palbociclib] + CC1(C)CCC(CN2CCN(c3ccc(C(=O)NS(=O)(=O)c4ccc(NCC5CCOCC5)c([N+](=O)[O-])c4)c(Oc4cnc5[nH]ccc5c4)c3)CC2)=C(c2ccc(Cl)cc2)C1 [Venetoclax] (first compound max 10 µM, 7x7, partner max 1 µM) | 0.157 | 0.513 | 0.481 | 0.0413 | 0.465 | 1 | 0.143 | 0.671 | 0.715 | 0.461 | 0.222 | 0.683 | 0.94 | 0.109 | 0.147 | 0.312 | 0.153 | 0.56 | 0.383
